# Experimental data reported in ChEMBL document CHEMBL4130580, “Bibenzyl-Based Meroterpenoid Enantiomers from the Chinese Liverwort Radula sumatrana” (J Nat Prod, 2017).
# Columns and labels:
# MCF7 = assay: Cytotoxicity against human MCF7 cells assessed as reduction in cell viability by MTT assay
# PC-3 = assay: Cytotoxicity against human PC3 cells assessed as reduction in cell viability by MTT assay
# SMMC-7721 = assay: Cytotoxicity against human SMMC7721 cells assessed as reduction in cell viability by MTT assay
SMILES,IC50 (MCF7),IC50 (PC-3),IC50 (SMMC-7721)
CC12CCC3C1C(c1c(CCc4ccccc4)cc(O)cc1O2)C3(C)C (centres undefined),14 µM,19.6 µM,14.5 µM
C=C(C)C1CCC2(C)Oc3cc(O)cc(CCc4ccccc4)c3C1C2O (racemic),38.2 µM,> 40 µM,> 40 µM
CC12CCc3cc(CCc4ccccc4)cc(O)c3C1C2 (racemic),24.7 µM,> 40 µM,34.2 µM
